Data reported in patent publication US12661338B2, “Heterocyclic compounds as modulators of beta-catenin / TCF4 interaction” (AGENCY FOR SCIENCE, TECHNOLOGY AND RESEARCH, priority 2019, dated 2026).
Like-named read-outs stand apart in the source and are kept apart here.

Tests used:
Format in all cases: cell-based
CRC2001 = assay: Viability of primary patient-derived colorectal cancer cell line
[1] = tested on: Wnt signalling (TOPFlash reporter, STF3A cells); assay: Wnt STF3A TOPFlash reporter dose response (constitutive Wnt3A)
Protocol: Wnt STF reporter cells (HEK 293 cells stably transfected with TOPFlash reporter) and STF3A reporter cells (STF cells with constitutive secretion of Wnt3A) were kind gifts from David Virshup (Duke-NUS Graduate Medical School, Singapore). HCT116, DLD-1, and SW480 cell lines were obtained from ATCC. The Hippo pathway TEAD reporter (cat. #60618) and Myc signalling pathway reporter (cat. #60520) cells lines were purchased from BPS Bioscience, Inc.
The Wnt STF3A reporter cells were seeded as 20,000 cells in 100 μL culture medium per well in 96-well plates (Corning cat. #3903, Falcon cat. #353072). The next day, 5-fold dilutions of the compounds in DMSO were added to the cells at a final concentration of 1% DMSO. After 24 hr incubation, the viability of the cells was determined with cell counting kit-8 (CCK-8, Dojindo cat. #CK04) cell viability reagent according to the manufacturer's protocol while the TOPFlash reporter activity was determined with Steady-Glo luciferase reagent.
The average signal from DMSO treated wells was calculated for each plate, and the signal from each treatment well was normalized against the average DMSO signal from the respective plate. The normalized values were plotted against the concentrations tested using GraphPad Prism 5, and the EC50 values were determined through either three- or four-parameter nonlinear regression.

CRC1489 = assay: Viability of primary patient-derived colorectal cancer cell line
CRC2423 = assay: as above

CCc1ccc(OCc2nnc(SC3CCCC3=O)n2C(C)c2ccccc2)cc1 (centres unmarked) [GB1874]
EC50 (CRC2001): 25 µM
IC50 ([1]; Table 1, STF3A reporter cells, 24 hr, read-out: IC50 Wnt (STF3A)): 26 µM
IC50 ([1]; Table 3, STF3A reporter cell line, read-out: STF3A Inhibition IC50): 27 µM
EC50 (CRC1489): 41 µM
EC50 (CRC2423): 30 µM
